Reference: patent US20260207535A1, “CRIBLAGE INHIBITEURS USP8” (COMMISSARIAT A L'ENERGIE ATOMIQUE ET AUX ENERGIES …, priority 2022, published 2026)

System: POMC gene
Assay: POMC encoding gene expression (quantitative RT-PCR, normalized to HPRT)
Type: cell-based, mouse
Settings: 10, 20, 30 and 36 μM, 24 hours, vs DMSO
Description: Each dot represents the amount of POMC encoding transcripts normalized to the amount of transcripts encoding the housekeeping gene HPRT and then compared to the DMSO control condition. Mean of technical triplicates with errors bars.
ACTH production depends on the activation of the proopiomelanocortin (POMC) gene encoding the ACTH precursor.
3.75×10^5 AtT20 cells were seeded on polylysine-coated 6-well culture microplates on 2.4 mL complete medium. After 24 hours, cells were treated with stock compounds to a final DMSO concentration of 0.5%. After 24 hours of treatment, cells were briefly rinsed with 37° C. DPBS (no calcium, no magnesium modification), lysed with the LBP reagent from the NucleoSpin® RNA Plus kit (Macherey-Nagel 740984.50) and then frozen at −70° C. before continuing with the RNA extraction protocol as per manufacturer's instructions. 1 μg RNA was used to synthesize cDNA using the AffinityScript QPCR cDNA Synthesis Kit (Agilent #600559). qPCR reaction was performed using the primers against the mouse POMC gene (5′-CCTCCTGCTTCAGACCTCCATAGAT-3′ and 5′-GTCTCCAGAGAGGTCGAGTTT). […] Detection was done using the Brilliant II SYBR® Green QPCR Master Mix (Agilent #600828), and readings were done using a Stratagene Mx3005P equipment.

Cc1cc(C(C#N)c2ccc(Cl)cc2)c(Cl)cc1NC(=O)c1cc(I)cc(I)c1O (stereo not shown) [Closantel, reference compound]
POMC mRNA species (FIG. 8): strong decrease
